Reference: publication PMC6804107, “Separation and Lipid Inhibition Effects of a Novel Decapeptide from Chlorella pyenoidose” (Molecules, 2019)

Columns and labels:
[1] = target: T1, porcine pancreatic lipase (PL) (Sus scrofa, UniProt P00591); assay: Pancreatic lipase inhibition, Copper soap method; type: biochemical; conditions: olive oil substrate, PBS pH 7.38, triplicate
T1 construct: purchased Sigma
T1 sequence (P00591 1-450): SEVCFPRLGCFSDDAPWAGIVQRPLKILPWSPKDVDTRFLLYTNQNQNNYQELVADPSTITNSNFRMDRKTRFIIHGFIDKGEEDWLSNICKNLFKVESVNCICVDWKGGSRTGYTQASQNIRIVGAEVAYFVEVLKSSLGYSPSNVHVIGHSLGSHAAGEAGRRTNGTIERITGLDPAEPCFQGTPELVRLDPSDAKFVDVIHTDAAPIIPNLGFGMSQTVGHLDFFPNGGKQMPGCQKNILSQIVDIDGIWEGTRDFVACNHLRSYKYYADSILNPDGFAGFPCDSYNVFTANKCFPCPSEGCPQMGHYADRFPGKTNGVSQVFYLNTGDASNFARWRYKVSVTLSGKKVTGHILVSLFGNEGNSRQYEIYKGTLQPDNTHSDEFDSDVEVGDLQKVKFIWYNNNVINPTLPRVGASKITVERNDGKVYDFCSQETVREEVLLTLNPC
Protocol: Copper soap method: The lipase activity assay involved a reaction medium (10 mL) containing 1 mg of olive oil, 3 mL 0.0667 mol/L, pH = 7.38 phosphate buffer saline (PBS), and 0.1 mL (C = 1 mg/mL) of lipase in the presence of 1 mL peptides with different concentrations. The peptides solution was prepared by dissolving in the working solution and was then added to reaction mixtures just before the reaction. Control lipase activity was determined without peptides. All samples were analyzed in triplicate. (1) Inhibition%=1−(Aa−A0)−(Ab−A0)/(Aa−A0)×100% where Ab refers to the absorbance value of the normal group; A0 is referred to the absorbance value of blank; and Aa is the absorbance values of the control group.

3T3-L1 adipocytes [2] = assay: Intracellular triacylglycerol in 3T3-L1 adipocytes; type: cell-based; conditions: for decrease of intracellular triacylglycerol accumulation: 3T3-L1 cells
Protocol: (§1) First, 3T3-L1 cells were cultured in Dulbecco’s modified Eagle’s medium (DMEM) medium containing 10% (v/v) fatal bovine serum (FBS) and 1% antibiotics in a humidified atmosphere of 5% CO2 at 37 °C. For cell toxicity assessment, 3T3-L1 cells (1 × 10^5) were seeded in a 96-well plate for 24 h. After that, the cells were incubated for 6 days in DMEM containing various concentrations (0–1.0 mg/mL) of the synthetic PP1. Cell toxicity was measured by MTT according to the instructions indicated by the manufacturer. For cell differentiation, 3T3-L1 cells were seeded in 6-well plates at a density of 2 × 10^5 cells/well. Then, the medium was changed by DMEM with insulin (5 μg/mL; Sigma), 1 μM of dexamethasone (Sigma), and 0.5 mM of 3-isobutyl-1-methylxanthine. On day 3, the medium was replaced with DMEM containing insulin (5 μg/mL; Sigma) and 10% (v/v) FBS every 3 days. Various concentrations of the synthetic PP1 were attendant during the whole process of differentiation induction. Oil Red O staining of the intracellular lipids was carried out, as described previously. Moreover, intracellular triacylglycerol levels were measured by using an Assay Triglyceride Kit. Protein concentrations were determined with BCA Protein Assay.

PPARγ = assay: Western blot, PPARγ expression; type: cell-based; conditions: PP1 600 μg/mL, 3T3-L1 adipocytes
Protocol: (§2) Cells were lysed in Radio Immunoprecipitation Assay (RIPA) buffer for 1 h and then centrifuged at 12,000 rpm for 25 min at 4 °C. The protein concentrations were determined by using a BCA protein assay kit. The supernatants were mixed with 4 × Sodium dodecyl sulfate (SDS) sample buffer and boiled for 10 min. The samples were run on a 4–15% SDS polyacrylamide gel and then transferred to a polyvinylidene difluoride membrane. The membrane was blocked with 5% (w/v) bovine serum albumin (BSA) for 30 min and then incubated with primary antibodies at 4 °C overnight. After washing with Tris-Buffered Saline and Tween 20 (TBST) 3 times, the membranes were washed with TBST and incubated with the secondary antibodies. Signals were detected with a scanner (Thermo Fisher Scientific, Inc.), and the fluorescence intensity was measured using Image software.

3T3-L1 adipocytes [3] = assay: Lipid accumulation / differentiation in 3T3-L1 cells (Oil Red O); type: cell-based
Protocol: as §1

SREBP-1c = assay: Western blot, SREBP-1c expression; type: cell-based; conditions: PP1 600 μg/mL, 3T3-L1 adipocytes
Protocol: as §2

AMPKα = assay: Western blot, AMPKα expression; type: cell-based; conditions: PP1 600 μg/mL, 3T3-L1 adipocytes
Protocol: as §2

C/EBPα = assay: Western blot, C/EBPα expression; type: cell-based; conditions: PP1 600 μg/mL, 3T3-L1 adipocytes
Protocol: as §2

[4] = Table 2, Alcalase hydrolysate fractions and positive drugs, mean ± SD, test concentration not given

Compound	Inhibition of Pancreatic Lipase [1, 4] [%]	decrease of intracellular triacylglycerol accumulation (3T3-L1 adipocytes [2]; simvastatin 10 μM, positive drug) [%]	PPARγ protein level (PPARγ)	decrease of intracellular triacylglycerol accumulation (3T3-L1 adipocytes [2]; PP1 600 μg/mL) [%]	intracellular triacylglycerol level (3T3-L1 adipocytes [2]; PP1 600 μg/mL during differentiation, p < 0.05, mature adipocyte (model) 82.98 ± 11.2, pre-adipocytes 25.98 ± 1.6) [nmol/mg protein]	differentiation inhibition (3T3-L1 adipocytes [3]; 3T3-L1 pre-adipocytes)	number of intracellular lipid droplets (3T3-L1 adipocytes [3]; Oil Red O, PP1 present during differentiation, compared with model group)	SREBP-1c protein level (SREBP-1c)	AMPKα protein expression (AMPKα)	C/EBPα protein level (C/EBPα)	Inhibition of Pancreatic Lipase ([1]; synthetic peptide at 200 μg/mL) [%]
CCCCCCCCCCC[C@@H](C[C@@H]1OC(=O)[C@H]1CCCCCC)OC(=O)[C@H](CC(C)C)NC=O [Orlistat]	88.85 ± 2.42										
CCC(C)(C)C(=O)O[C@H]1C[C@@H](C)C=C2C=C[C@H](C)[C@H](CC[C@@H]3C[C@@H](O)CC(=O)O3)[C@H]21 [simvastatin, reference compound]	35.2 ± 1.9	24.1									
Leu-Leu-Val-Val-Try-Pro-Trp-Thr-Gln-Arg (LLVVYPWTQR) [PP1, synthetic decapeptide identified from A2 fraction of Alcalase hydrolysate]			decreased the levels of C/EBPα, SREBP-1c, and PPARγ	27.9	59.82 ± 6.78	good differentiation inhibition activity	clearly decreased compared with that in the model group	decreased the levels of C/EBPα, SREBP-1c	significantly increased the expression of AMPKα	decreased the levels of C/EBPα	47.95
